Laboratory results from ChEMBL document CHEMBL3988442, “University of Dundee, Small-Polar-MMV Screening Library” (2021).
Where “and” joins values, the source holds several entries; their conditions need not be identical. Identical values can stand only once.

Legend:
[1] = molecular target: Chromo domain-containing protein 1 (Saccharomyces cerevisiae (strain ATCC 204508 / S288c) (Baker's yeast), UniProt P32657); test: ScCHD-1 Enzyme Inhibition Assay; assay type: functional
[2] = molecular target: Lysine--tRNA ligase (Plasmodium falciparum (isolate 3D7), UniProt Q8IDJ8); test: Pf-KRS-1 (Lysyl-RNA Synthetase-1, KRS-1, cytosolic KRS) from Plasmodium falciparum. Inhibitor assay, 384 well plate, luminescence read.; assay type: functional
Lysine--tRNA ligase, sequence (Q8IDJ8 whole entry): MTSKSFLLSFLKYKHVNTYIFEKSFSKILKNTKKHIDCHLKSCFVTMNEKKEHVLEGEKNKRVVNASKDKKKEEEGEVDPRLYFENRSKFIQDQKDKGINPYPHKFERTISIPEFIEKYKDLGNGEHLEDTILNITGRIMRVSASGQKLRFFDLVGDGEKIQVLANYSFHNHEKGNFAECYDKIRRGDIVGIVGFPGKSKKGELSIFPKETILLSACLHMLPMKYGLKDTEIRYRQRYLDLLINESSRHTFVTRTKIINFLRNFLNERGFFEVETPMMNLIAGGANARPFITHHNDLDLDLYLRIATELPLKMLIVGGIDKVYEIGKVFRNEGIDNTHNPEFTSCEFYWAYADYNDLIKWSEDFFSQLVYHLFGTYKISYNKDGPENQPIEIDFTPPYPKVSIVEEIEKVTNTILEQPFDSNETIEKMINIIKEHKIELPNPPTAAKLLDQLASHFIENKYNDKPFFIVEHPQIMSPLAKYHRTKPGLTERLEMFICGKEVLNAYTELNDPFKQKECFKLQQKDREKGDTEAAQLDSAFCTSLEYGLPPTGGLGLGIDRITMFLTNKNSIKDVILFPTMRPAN

[3] = molecular target: T1, Ubiquitin-activating enzyme e1, putative (Leishmania donovani (strain BPK282A1), UniProt E9BSI1); test: Leishmania donovani Ubiquitin Activating Enzyme (LdE1); assay type: functional
T1 sequence (E9BSI1 whole entry): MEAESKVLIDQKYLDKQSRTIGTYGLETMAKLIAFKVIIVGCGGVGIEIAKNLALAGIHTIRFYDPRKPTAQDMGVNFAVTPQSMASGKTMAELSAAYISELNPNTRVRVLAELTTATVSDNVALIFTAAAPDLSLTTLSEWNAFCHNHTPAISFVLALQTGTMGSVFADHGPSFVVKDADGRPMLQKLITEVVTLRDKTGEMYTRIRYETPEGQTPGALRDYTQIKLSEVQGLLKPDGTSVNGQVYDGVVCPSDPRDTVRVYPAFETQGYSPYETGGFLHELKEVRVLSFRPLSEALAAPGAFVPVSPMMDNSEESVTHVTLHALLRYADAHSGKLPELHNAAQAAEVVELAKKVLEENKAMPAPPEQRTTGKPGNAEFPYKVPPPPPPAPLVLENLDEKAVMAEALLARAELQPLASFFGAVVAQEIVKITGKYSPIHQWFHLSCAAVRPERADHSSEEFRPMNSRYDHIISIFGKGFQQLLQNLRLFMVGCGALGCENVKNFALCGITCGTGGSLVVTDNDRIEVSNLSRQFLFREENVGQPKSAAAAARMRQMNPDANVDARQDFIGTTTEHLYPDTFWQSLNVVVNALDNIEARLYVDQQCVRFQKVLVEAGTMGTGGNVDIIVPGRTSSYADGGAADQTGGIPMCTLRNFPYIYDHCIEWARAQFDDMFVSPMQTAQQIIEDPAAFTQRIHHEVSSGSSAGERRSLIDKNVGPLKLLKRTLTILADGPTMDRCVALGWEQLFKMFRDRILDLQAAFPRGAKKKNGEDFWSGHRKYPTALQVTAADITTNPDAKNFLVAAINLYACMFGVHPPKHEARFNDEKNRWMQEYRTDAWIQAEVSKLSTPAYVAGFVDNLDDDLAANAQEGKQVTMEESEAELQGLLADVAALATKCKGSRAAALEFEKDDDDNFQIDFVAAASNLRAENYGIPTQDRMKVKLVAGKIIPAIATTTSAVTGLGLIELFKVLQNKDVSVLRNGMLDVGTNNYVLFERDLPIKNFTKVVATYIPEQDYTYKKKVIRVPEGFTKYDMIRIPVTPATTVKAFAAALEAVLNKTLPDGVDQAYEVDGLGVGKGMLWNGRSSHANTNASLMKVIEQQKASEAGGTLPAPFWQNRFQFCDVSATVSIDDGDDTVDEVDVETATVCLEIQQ

[4] = molecular target: T2, Histidine--tRNA ligase (Leishmania infantum, UniProt A4I591); test: Leishmania infantum Histidine tRNA synthetase (LdHisRS); assay type: functional
T2 sequence (A4I591 whole entry): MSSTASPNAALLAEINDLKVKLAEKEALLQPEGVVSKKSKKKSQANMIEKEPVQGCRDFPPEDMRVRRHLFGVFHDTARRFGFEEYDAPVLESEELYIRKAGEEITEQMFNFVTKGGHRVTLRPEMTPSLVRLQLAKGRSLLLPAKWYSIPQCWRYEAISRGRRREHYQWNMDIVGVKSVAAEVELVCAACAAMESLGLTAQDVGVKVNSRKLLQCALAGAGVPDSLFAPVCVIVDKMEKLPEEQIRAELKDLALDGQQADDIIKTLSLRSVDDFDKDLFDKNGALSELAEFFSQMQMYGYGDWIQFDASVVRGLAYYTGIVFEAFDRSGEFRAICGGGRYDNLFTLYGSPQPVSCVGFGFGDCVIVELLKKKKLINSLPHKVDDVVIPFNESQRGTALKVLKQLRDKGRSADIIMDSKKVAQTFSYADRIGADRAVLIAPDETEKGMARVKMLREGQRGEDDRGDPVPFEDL

[5] = tested on: Leishmania donovani; test: Leishmania intramacrophage assay; assay type: functional, organism-based; conditions: Leishmania donovani
[6] = tested on: Plasmodium falciparum; test: Plasmodium falciparum sporozoite viability assay; assay type: functional, organism-based; conditions: Plasmodium falciparum
[7] = tested on: Mycobacterium tuberculosis; test: Cornell M. t heat shock assay; assay type: functional, organism-based; conditions: Mycobacterium tuberculosis

Chromo domain-containing protein 1, sequence (P32657 whole entry, the tested form may be a part): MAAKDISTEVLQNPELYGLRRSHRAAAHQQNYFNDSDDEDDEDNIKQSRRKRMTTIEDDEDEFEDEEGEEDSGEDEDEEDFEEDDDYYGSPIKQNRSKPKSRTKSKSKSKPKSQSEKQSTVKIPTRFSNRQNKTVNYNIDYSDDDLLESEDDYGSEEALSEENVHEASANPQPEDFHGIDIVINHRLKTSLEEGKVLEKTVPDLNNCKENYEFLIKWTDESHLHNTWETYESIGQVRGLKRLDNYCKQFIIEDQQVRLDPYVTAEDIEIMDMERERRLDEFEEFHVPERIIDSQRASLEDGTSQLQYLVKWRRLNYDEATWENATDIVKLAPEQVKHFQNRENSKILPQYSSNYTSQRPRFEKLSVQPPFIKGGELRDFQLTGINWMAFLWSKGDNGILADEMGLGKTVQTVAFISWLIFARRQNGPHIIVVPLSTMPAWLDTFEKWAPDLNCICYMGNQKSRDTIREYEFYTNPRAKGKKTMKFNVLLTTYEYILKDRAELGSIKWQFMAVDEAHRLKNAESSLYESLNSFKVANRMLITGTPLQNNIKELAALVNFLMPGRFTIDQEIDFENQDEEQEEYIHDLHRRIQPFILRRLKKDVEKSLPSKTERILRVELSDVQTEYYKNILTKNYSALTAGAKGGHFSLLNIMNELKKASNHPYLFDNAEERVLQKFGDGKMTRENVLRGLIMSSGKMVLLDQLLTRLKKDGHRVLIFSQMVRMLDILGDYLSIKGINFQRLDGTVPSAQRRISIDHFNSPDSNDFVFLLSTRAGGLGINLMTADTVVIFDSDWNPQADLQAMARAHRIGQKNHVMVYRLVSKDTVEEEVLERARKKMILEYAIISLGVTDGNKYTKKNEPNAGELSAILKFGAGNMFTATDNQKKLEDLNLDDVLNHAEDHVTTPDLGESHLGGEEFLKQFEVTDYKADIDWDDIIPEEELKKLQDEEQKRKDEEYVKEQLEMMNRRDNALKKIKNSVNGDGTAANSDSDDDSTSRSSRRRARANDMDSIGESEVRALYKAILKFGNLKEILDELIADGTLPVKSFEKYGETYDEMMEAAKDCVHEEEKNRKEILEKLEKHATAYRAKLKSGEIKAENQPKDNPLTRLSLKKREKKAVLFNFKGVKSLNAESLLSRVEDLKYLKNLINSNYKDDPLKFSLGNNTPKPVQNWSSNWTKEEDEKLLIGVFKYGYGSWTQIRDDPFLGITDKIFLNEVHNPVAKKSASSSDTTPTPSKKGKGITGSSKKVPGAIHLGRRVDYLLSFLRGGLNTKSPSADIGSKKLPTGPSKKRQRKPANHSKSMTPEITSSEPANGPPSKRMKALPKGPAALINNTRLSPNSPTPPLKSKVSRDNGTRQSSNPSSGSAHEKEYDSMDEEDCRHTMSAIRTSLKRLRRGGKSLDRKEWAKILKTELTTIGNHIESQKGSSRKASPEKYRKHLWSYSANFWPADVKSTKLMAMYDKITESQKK

SMILES	IC50 [1]	IC50 [3] [µM]	IC50 [4]	also measured
Cc1nc(CN2CCCC(CCc3c(F)cccc3F)C2)c[nH]1 (configuration not stated)	> 29.5 µM			
Cc1ncc(S(C)(=O)=O)c(C2CCCNC2)n1 (configuration not stated)	> 29.5 µM			
CNc1cc(N2CCCC2CNCc2ccc(Cl)o2)ncn1 (configuration not stated)	> 29.5 µM			
O=C(c1csc(Br)c1)N1CCCC(n2ccnc2)C1 (configuration not stated)	> 29.5 µM			
Cc1c(C(=O)NCC2CCCO2)nnn1-c1cccc2c1CCN(C)C2 (configuration not stated)	> 29.5 µM			
O=C(Cc1cccnc1)N1CCC(OCc2ccccc2)CC1	> 29.5 µM			
CN(C)Cc1ccc(C2CCCCN2C(=O)c2cccc(CO)n2)cc1 (configuration not stated)	> 29.5 µM			
c1ncn(CC2CCCCN2Cc2csc(C3CCCC3)n2)n1 (configuration not stated)	> 29.5 µM			
O=C(NCC(F)(F)F)NC1CCCc2c1cnn2CCO (configuration not stated)	> 29.5 µM			
CCn1nccc1CNC(=O)C1CC1	> 29.5 µM			
CCC(NC(=O)C1CCN(S(C)(=O)=O)CC1)c1ccc(OC)c(C)c1 (configuration not stated)	> 29.5 µM			
CCCN(C(=O)c1ccncc1)c1nc2c(s1)CCc1c-2cnn1C		> 100	20.6 µM and 17 µM	IC50 [2]: > 50.1 µM
CC(=O)NCCC(=O)NCc1cccnc1-n1cnc2ccccc21	> 29.5 µM			
Cc1cc(C)n(CC2CN(Cc3cccc(C(N)=O)c3)CCO2)n1 (configuration not stated)	> 29.5 µM			
COc1ccc(C(=O)N2CCCCC2c2nc(C)cs2)nn1 (configuration not stated)	21.8 µM and > 29.5 µM			
CNC(=O)COc1ccccc1CNC1CCc2ncnn2C1 (configuration not stated)	> 29.5 µM			
O=C(NC1CC1)[C@H]1C[C@H]2OCC[C@H]2N(CC2CCOCC2)C1	> 29.5 µM			
Cc1ccc(CNC(=O)CN2CCN(CC(O)C3CC3)CC2)cc1 (configuration not stated)	> 29.5 µM			
COCc1nc2cc(NCc3nc(C)cs3)ccc2o1		> 100	24.1 µM and 33.1 µM	IC50 [2]: > 50.1 µM

SMILES	IC50 [1]	IC50 [3] [µM]	IC50 [4]	also measured
COCc1nc2cc(NCc3cc[nH]n3)ccc2o1		> 100	> 100 µM	
Cn1nc2c(cc1=O)CN(Cc1coc(-c3ccc(F)cc3)n1)CC2		> 100	16.5 µM and 18.8 µM	
CCCN(C(=O)COC)c1nc2c(s1)CCc1c-2cnn1C		> 100	7.02 µM and 8.63 µM	IC50 [2]: > 50.1 µM
CC(NC(=O)NCCNc1cnccn1)c1cccs1 (configuration not stated)		> 100		IC50 [5]: > 50.1 µM
COCc1nc2cc(NCc3scnc3C)ccc2o1		> 100	77.5 µM and 90.5 µM	
CN(C(=O)c1ccccn1)c1nc2c(s1)CCc1c-2cnn1C		> 100	30.7 µM and 23.3 µM	
COCCN(C(=O)c1ccccn1)c1nc2c(s1)CCc1c-2cnn1C		> 100	9.13 µM and 10.9 µM	IC50 [2]: > 50.1 µM; IC50 [6]: 0.574 µM
COCc1nc2cc(NCc3ccc(CO)o3)ccc2o1		> 100	86.1 µM and > 100 µM	
Cn1nc2c(cc1=O)CN(Cc1nc(C3CC3)no1)CC2		> 100	23.8 µM and 20.7 µM	
Cc1ccc(-c2nnc(CN3CCc4nn(C)c(=O)cc4C3)o2)cc1		> 100	10.5 µM and 12.1 µM	
CCCN(C(=O)c1cnc(C)cn1)c1nc2c(s1)CCc1c-2cnn1C		> 100	43.9 µM and 33.5 µM	IC50 [2]: > 50.1 µM
CCc1nnc(CNC2CCc3nc(C(C)C)nn3C2)o1 (configuration not stated)		> 100		IC50 [7]: > 100 µM
Cc1ccc(-c2nc(CN3CCc4nn(C)c(=O)cc4C3)no2)cc1		> 100	72.7 µM and 85.3 µM	
CCCN(C(=O)c1cccnc1)c1nc2c(s1)CCc1c-2cnn1C		> 100	16.8 µM and 13.1 µM	IC50 [2]: > 50.1 µM
COCc1nc2cc(NCc3sc(C)nc3C)ccc2o1		> 100	15.1 µM and 19.3 µM	IC50 [2]: > 50.1 µM
COCc1nc2cc(NCc3csc(C)n3)ccc2o1		> 100		
CC(C)c1nc2n(n1)CC(NCc1nnc(-c3ccco3)o1)CC2 (configuration not stated)		> 100		
CC(C)N1CCC(Cc2cc(-c3cccc(C(=O)O)c3)ncn2)CC1		> 100		
